Consider four compounds from ChEMBL document CHEMBL1136819, “Synthesis, anticholinesterase activity and structure-activity relationships of m-Aminobenzoic acid derivatives” (Bioorg Med Chem Lett, 2003).

A short description of data set [1]: Lethal dose was reported. It counts as ADME.
Data set [2] concerns the target T1, Acetylcholinesterase (Torpedo californica, UniProt P04058).
Description: Inhibitory activity against acetylcholinesterase (AChE) from Torpedo californica (Reversible type of inhibition)
A short description of data set [3]: Partition coefficient (logP). It counts as physicochemical. The following applies: octanol/water.
Data set [4] has as its target T1, Acetylcholinesterase. Briefly: Inhibitory activity against acetylcholinesterase (AChE) from Torpedo californica (Irreversible type of inhibition). The arrangement: species or system Tetronarce californica.

T1 sequence (P04058 whole entry): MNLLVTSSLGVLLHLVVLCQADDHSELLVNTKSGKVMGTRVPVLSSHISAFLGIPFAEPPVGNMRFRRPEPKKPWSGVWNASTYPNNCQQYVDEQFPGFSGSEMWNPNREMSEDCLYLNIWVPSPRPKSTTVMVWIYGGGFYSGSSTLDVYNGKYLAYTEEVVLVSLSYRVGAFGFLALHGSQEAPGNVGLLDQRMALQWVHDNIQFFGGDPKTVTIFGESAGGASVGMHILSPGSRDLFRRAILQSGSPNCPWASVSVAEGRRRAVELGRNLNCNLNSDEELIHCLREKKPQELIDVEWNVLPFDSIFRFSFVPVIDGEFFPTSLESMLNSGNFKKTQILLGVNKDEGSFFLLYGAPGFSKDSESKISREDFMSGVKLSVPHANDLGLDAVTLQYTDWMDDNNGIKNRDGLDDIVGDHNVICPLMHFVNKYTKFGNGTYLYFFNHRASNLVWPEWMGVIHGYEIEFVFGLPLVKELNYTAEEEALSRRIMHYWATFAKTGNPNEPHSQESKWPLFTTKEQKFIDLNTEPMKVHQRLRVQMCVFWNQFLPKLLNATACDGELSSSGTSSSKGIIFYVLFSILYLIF

Consider `O=C(O)CCC(=O)Nc1cccc(C(=O)O)c1`, for which, in data set [1], the LD50 was above 1000 mg/kg. The compound also showed an IC50 against Acetylcholinesterase [2] of 92.5 nM. In data set [3], this compound gave a logP of 1.41.

In turn, `O=C(O)c1cccc(N2C(=O)C=CC2=O)c1` gave an IC50 against Acetylcholinesterase [4] of 256 nM. This compound also gave a logP in data set [3] of 1.48.

`O=C(O)c1cccc(N2C(=O)CCC2=O)c1` displayed an LD50 in data set [1] above 1000 mg/kg. At Acetylcholinesterase [2], this compound gave an IC50 of 33.4 nM. Moreover, in data set [3], the logP was 1.81.

In the case of `O=C(O)/C=C\C(=O)Nc1cccc(C(=O)O)c1`, the LD50 in data set [1] was above 1000 mg/kg. In addition, on Acetylcholinesterase [4], it took 357 nM to reach half-maximal inhibition (IC50). This compound registered a logP in data set [3] of 1.09.

A word on the LD50: it is the dose expected to kill half of the subjects tested. Lower therefore signals greater toxicity. As usually defined, the IC50 is the concentration at which inhibition is half-maximal. A high value points to weaker potency in that assay. For orientation: logP means a log measure of how a compound divides between an organic and an aqueous phase. Low values mean a more hydrophilic compound, high ones a more lipophilic compound.
